SMILES strings stand for the structures.

This passage reports EC50 results from US9802927B2, “Oxadiazine compounds and methods of use thereof” (Denali Therapeutics, Inc., priority 2015, dated 2017).

One experiment concerns Aβ42. Nature of the experiment: In vitro cell screening assay in H4 cells expressing human APP751: Aβ42 by sandwich ELISA. The class given is cell-based. The note with it: Homo sapiens, compounds 0.003-10 μM, incubated overnight (16-18 h), sandwich ELISA of supernatant. In short, it runs like this:
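Secreted Aβ42 measured by sandwich ELISA, C-terminal-specific capture and 4G8-HRP detection, TMB read at 450 nm, from supernatants of APP751-expressing H4 cells exposed overnight (16-18 h) to 0.003-10 μM compound in Pro293 medium, 0.33% DMSO. Data scaled between DMSO and DAPT controls; EC50 from variable-slope nonlinear regression.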
A general note: An ELISA detects its analyte on a solid surface through an enzyme-linked reagent.
As a reminder, the EC50 is the concentration giving half of the maximal effect. A higher EC50 goes with a need for much substance. In turn, `COc1nc(C2=NOCC(C)N2)ccc1-n1cnc(C)c1` (single isomer, unassigned; (+)) [Example 149A, (+)-3-(6-methoxy-5-(4-methyl-1H-imidazol-1-yl)pyridin-2-yl)-5-methyl-5,6-dihydro-4H-1,2,4-oxadiazine] returned an EC50 above 3000 nM.
In turn, `COc1nc(C2=NOCC(c3cscn3)N2)ccc1-n1cnc(C)c1` (single isomer, unassigned; (+)) [Example 156A, (+)-3-(6-methoxy-5-(4-methyl-1H-imidazol-1-yl)pyridin-2-yl)-5-(thiazol-4-yl)-5,6-dihydro-4H-1,2,4-oxadiazine] showed an EC50 of 1730 nM.
`COc1nc(C2=NOCC(c3ccccn3)N2)ccc1-n1cnc(C)c1` (single isomer, unassigned; (+)) [Example 168A, (+)-3-(6-methoxy-5-(4-methyl-1H-imidazol-1-yl)pyridin-2-yl)-5-(pyridin-2-yl)-5,6-dihydro-4H-1,2,4-oxadiazine] came in with a 50% effective concentration (EC50) above 3000 nM.
Consider `COc1nc(C2=NOCC(C3CCS(=O)(=O)CC3)N2)ccc1-n1cnc(C)c1` (single isomer, unassigned; (+)) [Example 177A, (+)-4-(3-(6-methoxy-5-(4-methyl-1H-imidazol-1-yl)pyridin-2-yl)-5,6-dihydro-4H-1,2,4-oxadiazin-5-yl) tetrahydro-2H-thiopyran 1,1-dioxide], for which the EC50 is above 3000 nM.

Still in this experiment, the particulars now being: compounds 0.003-10 μM, incubated overnight (16-18 h), sandwich ELISA of supernatant.
Turning to `COc1cccc(C2CON=C(c3ccc(-n4cnc(C)c4)c(OC)n3)N2)c1` (single isomer, unassigned; (+)) [Example 145B, (+)-3-(6-methoxy-5-(4-methyl-1H-imidazol-1-yl)pyridin-2-yl)-5-(3-methoxyphenyl)-5,6-dihydro-4H-1,2,4-oxadiazine], the EC50 was 197 nM.
With `COc1nc(C2=NOCC(C(C)(C)C)N2)ccc1-n1cnc(C)c1` (single isomer, unassigned; (+)) [Example 147B, (+)-5-(tert-butyl)-3-(6-methoxy-5-(4-methyl-1H-imidazol-1-yl)pyridin-2-yl)-5,6-dihydro-4H-1,2,4-oxadiazine], the EC50 is 1720 nM.
`COc1nc(C2=NOCC(c3ccc(C#N)cc3)N2)ccc1-n1cnc(C)c1` (single isomer, unassigned; (+)) [Example 151B, (+)-4-(3-(6-methoxy-5-(4-methyl-1H-imidazol-1-yl)pyridin-2-yl)-5,6-dihydro-4H-1,2,4-oxadiazin-5-yl) benzonitrile] showed a 50% effective concentration (EC50) of 450 nM.
The same measure, in the same setting: with `COc1nc(C2=NOCC(CC(C)C)N2)ccc1-n1cnc(C)c1` (single isomer, unassigned; (+)) [Example 154A, (+)-5-isobutyl-3-(6-methoxy-5-(4-methyl-1H-imidazol-1-yl)pyridin-2-yl)-5,6-dihydro-4H-1,2,4-oxadiazine] the figure was 930 nM; with `COc1nc(C2=NOCC(c3oc(C)nc3C)N2)ccc1-n1cnc(C)c1` (single isomer, unassigned; (+)) [Example 161B, (+)-5-(2,4-dimethyloxazol-5-yl)-3-(6-methoxy-5-(4-methyl-1H-imidazol-1-yl)pyridin-2-yl)-5,6-dihydro-4H-1,2,4-oxadiazine], above 3000 nM; with `COc1nc(C2=NOCC(C3CCC3)N2)ccc1-n1cnc(C)c1` (single isomer, unassigned; (+)) [Example 163A, (+)-5-cyclobutyl-3-(6-methoxy-5-(4-methyl-1H-imidazol-1-yl)pyridin-2-yl)-5,6-dihydro-4H-1,2,4-oxadiazine], above 3000 nM.
The same measure, in the same setting: with `COc1nc(C2=NOCC(c3cnn(C)c3)N2)ccc1-n1cnc(C)c1` (single isomer, unassigned; (+)) [Example 166B, (+)-3-(6-methoxy-5-(4-methyl-1H-imidazol-1-yl)pyridin-2-yl)-5-(1-methyl-1H-pyrazol-4-yl)-5,6-dihydro-4H-1,2,4-oxadiazine] the figure was above 3000 nM; with `COc1nc(C2=NOCC(C3CCCC3)N2)ccc1-n1cnc(C)c1` (single isomer, unassigned; (+)) [Example 171A, (+)-5-cyclopentyl-3-(6-methoxy-5-(4-methyl-1H-imidazol-1-yl)pyridin-2-yl)-5,6-dihydro-4H-1,2,4-oxadiazine], 918 nM; with `COc1nc(C2=NOCC(C3CC(F)(F)C3)N2)ccc1-n1cnc(C)c1` (single isomer, unassigned; (+)) [Example 180B, (+)-5-(3,3-difluorocyclobutyl)-3-(6-methoxy-5-(4-methyl-1H-imidazol-1-yl)pyridin-2-yl)-5,6-dihydro-4H-1,2,4-oxadiazine], 281 nM.
As to `COc1nc(C2=NOCC(c3ccc4ncsc4c3)N2)ccc1-n1cnc(C)c1` (single isomer, unassigned; (+)) [Example 183B, (+)-5-(benzo [d]thiazol-6-yl)-3-(6-methoxy-5-(4-methyl-1H-imidazol-1-yl)pyridin-2-yl)-5,6-dihydro-4H-1,2,4-oxadiazine], a half-maximal effect (EC50) was put at 260 nM.
The compound `COc1nc(C2=NOCC(c3cc4ccccc4o3)N2)ccc1-n1cnc(C)c1` (single isomer, unassigned; (+)) [Example 186B, (+)-5-(benzofuran-2-yl)-3-(6-methoxy-5-(4-methyl-1H-imidazol-1-yl)pyridin-2-yl)-5,6-dihydro-4H-1,2,4-oxadiazine] gave an EC50 of 38.4 nM.
`COc1nc(C2=NOCC(c3cn(C)c4ccccc34)N2)ccc1-n1cnc(C)c1` (single isomer, unassigned; (+)) [Example 189A, (+)-3-(6-methoxy-5-(4-methyl-1H-imidazol-1-yl)pyridin-2-yl)-5-(1-methyl-1H-indol-3-yl)-5,6-dihydro-4H-1,2,4-oxadiazine] displayed a concentration for a half-maximal effect (EC50) of 24 nM.
Take `COc1nc(C2=NOCC(c3cn(C)c4ccc(F)cc34)N2)ccc1-n1cnc(C)c1` (single isomer, unassigned; (+)) [Example 190B, (+)-5-(5-fluoro-1-methyl-1H-indol-3-yl)-3-(6-methoxy-5-(4-methyl-1H-imidazol-1-yl)pyridin-2-yl)-5,6-dihydro-4H-1,2,4-oxadiazine]: the EC50 is 19.5 nM.
In turn, `COc1nc(C2=NOCC(c3cn(C)c4cccc(F)c34)N2)ccc1-n1cnc(C)c1` (single isomer, unassigned; (+)) [Example 191A, (+)-5-(4-fluoro-1-methyl-1H-indol-3-yl)-3-(6-methoxy-5-(4-methyl-1H-imidazol-1-yl)pyridin-2-yl)-5,6-dihydro-4H-1,2,4-oxadiazine] came in with an EC50 of 6.9 nM.
`COc1nc(C2=NOCC(c3cn(C)c4cc(F)ccc34)N2)ccc1-n1cnc(C)c1` (single isomer, unassigned; (+)) [Example 192B, (+)-5-(6-fluoro-1-methyl-1H-indol-3-yl)-3-(6-methoxy-5-(4-methyl-1H-imidazol-1-yl)pyridin-2-yl)-5,6-dihydro-4H-1,2,4-oxadiazine] yielded a concentration giving a half-maximal response (EC50) of 8.5 nM.
`COc1nc(C2=NOCC(c3cn(C)c4ccc(Cl)cc34)N2)ccc1-n1cnc(C)c1` (single isomer, unassigned; (+)) [Example 193B, (+)-5-(5-chloro-1-methyl-1H-indol-3-yl)-3-(6-methoxy-5-(4-methyl-1H-imidazol-1-yl)pyridin-2-yl)-5,6-dihydro-4H-1,2,4-oxadiazine] had a 50% effective concentration (EC50) of 4.9 nM.
With `COc1nc(C2=NOCC(c3cn(C)c4cc(Cl)ccc34)N2)ccc1-n1cnc(C)c1` (single isomer, unassigned; (+)) [Example 194A, (+)-5-(6-chloro-1-methyl-1H-indol-3-yl)-3-(6-methoxy-5-(4-methyl-1H-imidazol-1-yl)pyridin-2-yl)-5,6-dihydro-4H-1,2,4-oxadiazine], the concentration for a half-maximal effect (EC50) was determined as 7.7 nM.
The same measure, in the same setting: the value for `COc1nc(C2=NOCC(c3cn(C)c4ncccc34)N2)ccc1-n1cnc(C)c1` (single isomer, unassigned; (+)) [Example 195B, (+)-3-(6-methoxy-5-(4-methyl-1H-imidazol-1-yl)pyridin-2-yl)-5-(1-methyl-1H-pyrrolo [2,3-b]pyridin-3-yl)-5,6-dihydro-4H-1,2,4-oxadiazine] was 163 nM; that for `COc1nc(C2=NOCC(c3cn(C(C)C)c4cccc(F)c34)N2)ccc1-n1cnc(C)c1` (single isomer, unassigned; (+)) [Example 196A, (+)-5-(4-fluoro-1-isopropyl-1H-indol-3-yl)-3-(6-methoxy-5-(4-methyl-1H-imidazol-1-yl)pyridin-2-yl)-5,6-dihydro-4H-1,2,4-oxadiazine] was 22.5 nM; that for `COc1nc(C2=NOCC(c3cn(C)c4cc(C(F)(F)F)ccc34)N2)ccc1-n1cnc(C)c1` (single isomer, unassigned; (+)) [Example 197A, (+)-3-(6-methoxy-5-(4-methyl-1H-imidazol-1-yl)pyridin-2-yl)-5-(1-methyl-6-(trifluoromethyl)-1H-indol-3-yl)-5,6-dihydro-4H-1,2,4-oxadiazine] was 3.4 nM.
The same measure, in the same setting: the value for `COc1nc(C2=NOCC(c3cn(C)c4ccccc34)N2C)ccc1-n1cnc(C)c1` (single isomer, unassigned; (+)) [Example 200A, (+)-3-(6-methoxy-5-(4-methyl-1H-imidazol-1-yl)pyridin-2-yl)-4-methyl-5-(1-methyl-1H-indol-3-yl)-5,6-dihydro-4H-1,2,4-oxadiazine] was 154 nM; that for `COc1nc(C2=NOCC(c3nc4ccccc4o3)N2)ccc1-n1cnc(C)c1` (single isomer, unassigned; (+)) [Example 203B, (+)-2-(3-(6-methoxy-5-(4-methyl-1H-imidazol-1-yl)pyridin-2-yl)-5,6-dihydro-4H-1,2,4-oxadiazin-5-yl)benzo[d]oxazole] was 256 nM.
`COc1nc(C2=NOCC(c3cc4ccccc4n3C)N2)ccc1-n1cnc(C)c1` (single isomer, unassigned; (+)) [Example 205B, (+)-3-(6-methoxy-5-(4-methyl-1H-imidazol-1-yl)pyridin-2-yl)-5-(1-methyl-1H-indol-2-yl)-5,6-dihydro-4H-1,2,4-oxadiazine] yielded an EC50 of 27 nM.
